Experimental data published in patent US20250368647A1, “NITROGEN CONTAINING CONDENSED 2,3-DIHYDROQUINAZOLINONE COMPOUNDS AS NAV1.8 INHIBITORS” (GLAXOSMITHKLINE INTELLECTUAL PROPERTY DEVELOPMENT LIMITED, priority 2022, published 2025).
Counter-ions that a name gives are not always drawn.

Target: human Nav1.8 (Homo sapiens (Human), UniProt Q9Y5Y9)
Assay: QPatch 48 HTX voltage-clamp electrophysiology, half inactivation state (V1/2) protocol, HEK293-Nav1.8 cells
Type: cell-based
Conditions: HEK293 cells expressing human Nav1.8, human Navβ1 and human TREK1, P2 current
Method in brief: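 HEK293 cells co-expressing Navβ1 and TREK1 were voltage-clamped from −100 mV: a 20 ms step to 0 mV, 8 s inactivation at −46 mV, 20 ms at −100 mV, then a 20 ms P2 test step to 0 mV, repeated every 15 s. P2 current was normalized to vehicle and full block, corrected for run-down, and Hill-fitted (4–6 concentrations) for IC50.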

Chain of human Nav1.8 (Q9Y5Y9 whole entry): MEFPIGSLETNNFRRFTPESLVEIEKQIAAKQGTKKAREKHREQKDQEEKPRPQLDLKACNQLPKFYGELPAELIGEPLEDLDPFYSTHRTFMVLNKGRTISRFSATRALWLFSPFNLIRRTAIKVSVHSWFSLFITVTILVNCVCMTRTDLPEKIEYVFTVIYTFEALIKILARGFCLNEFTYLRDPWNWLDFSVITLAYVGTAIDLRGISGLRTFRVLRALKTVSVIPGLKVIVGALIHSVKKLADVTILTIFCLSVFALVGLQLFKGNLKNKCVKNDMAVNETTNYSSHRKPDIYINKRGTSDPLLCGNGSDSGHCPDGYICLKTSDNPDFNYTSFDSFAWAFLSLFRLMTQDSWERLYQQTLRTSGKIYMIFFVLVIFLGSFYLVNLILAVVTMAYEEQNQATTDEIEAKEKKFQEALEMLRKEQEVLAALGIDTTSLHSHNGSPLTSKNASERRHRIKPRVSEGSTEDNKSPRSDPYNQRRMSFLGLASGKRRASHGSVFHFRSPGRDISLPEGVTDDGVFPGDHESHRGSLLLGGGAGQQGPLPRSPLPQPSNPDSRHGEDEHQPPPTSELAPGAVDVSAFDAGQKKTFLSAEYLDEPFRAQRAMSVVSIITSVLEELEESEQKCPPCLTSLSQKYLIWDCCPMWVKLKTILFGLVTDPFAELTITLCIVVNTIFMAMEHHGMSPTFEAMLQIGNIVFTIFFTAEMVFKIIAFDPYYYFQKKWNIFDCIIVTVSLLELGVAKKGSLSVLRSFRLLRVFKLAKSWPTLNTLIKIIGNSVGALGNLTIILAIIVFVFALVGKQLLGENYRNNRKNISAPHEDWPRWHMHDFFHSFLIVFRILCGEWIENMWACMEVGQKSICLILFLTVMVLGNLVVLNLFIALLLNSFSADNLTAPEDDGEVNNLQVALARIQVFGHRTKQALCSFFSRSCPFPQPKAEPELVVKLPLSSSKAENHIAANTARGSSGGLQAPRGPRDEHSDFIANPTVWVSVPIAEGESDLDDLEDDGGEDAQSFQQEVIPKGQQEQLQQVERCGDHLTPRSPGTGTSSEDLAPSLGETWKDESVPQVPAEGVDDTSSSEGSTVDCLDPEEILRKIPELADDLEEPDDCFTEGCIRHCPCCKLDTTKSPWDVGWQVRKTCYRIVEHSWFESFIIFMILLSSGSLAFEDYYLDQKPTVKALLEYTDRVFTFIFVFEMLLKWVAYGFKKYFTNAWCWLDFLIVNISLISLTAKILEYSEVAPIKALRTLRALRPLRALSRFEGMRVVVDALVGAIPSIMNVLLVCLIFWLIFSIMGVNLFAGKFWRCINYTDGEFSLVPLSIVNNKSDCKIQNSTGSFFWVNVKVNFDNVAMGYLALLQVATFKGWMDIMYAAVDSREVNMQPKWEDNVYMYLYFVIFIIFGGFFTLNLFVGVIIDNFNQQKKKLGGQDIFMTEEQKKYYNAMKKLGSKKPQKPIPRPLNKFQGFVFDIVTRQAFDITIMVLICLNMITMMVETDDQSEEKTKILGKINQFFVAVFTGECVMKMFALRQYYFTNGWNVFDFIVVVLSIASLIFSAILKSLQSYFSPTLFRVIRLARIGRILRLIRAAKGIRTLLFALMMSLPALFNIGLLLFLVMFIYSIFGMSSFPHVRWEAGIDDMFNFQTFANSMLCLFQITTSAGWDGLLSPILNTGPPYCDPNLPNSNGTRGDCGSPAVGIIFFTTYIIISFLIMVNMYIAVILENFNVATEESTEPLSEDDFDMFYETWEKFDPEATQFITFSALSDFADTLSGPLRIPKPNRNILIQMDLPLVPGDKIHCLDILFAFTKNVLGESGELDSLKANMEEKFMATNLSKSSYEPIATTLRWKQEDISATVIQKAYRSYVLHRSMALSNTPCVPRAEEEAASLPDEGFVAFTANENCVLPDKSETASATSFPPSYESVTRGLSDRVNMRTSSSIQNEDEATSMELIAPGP
Chain of human Nav1.8 (Q07699 19-218 partner): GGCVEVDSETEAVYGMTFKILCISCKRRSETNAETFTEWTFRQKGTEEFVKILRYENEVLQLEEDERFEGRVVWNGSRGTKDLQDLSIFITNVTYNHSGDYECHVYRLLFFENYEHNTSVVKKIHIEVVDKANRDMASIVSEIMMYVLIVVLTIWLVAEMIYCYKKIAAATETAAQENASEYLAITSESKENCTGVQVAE

SMILES | Nav1.8, pIC50
O=C1c2ccc(C(F)(F)F)cc2N2CN1c1ccc(=O)[nH]c1CCCCc1cc(F)ccc12 [Example 6, 8-fluoro-3-(trifluoromethyl)-10,11,12,13-tetrahydro-19H-5,18-methanodibenzo[b,l]pyridino[3,2-f][1,5]diazacyclotridecine-15,19(14H)-dione] | 7.1
O=C1c2cc(F)c(C(F)(F)F)cc2N2CN1c1ccc(=O)[nH]c1NCCCc1c2ccc(F)c1F [Example 92, 2,8,9-Trifluoro-3-(trifluoromethyl)-10,11,12,13-tetrahydro-19H-5,18-methano-dibenzo[f,i]pyrido[2,3-b][1,4,8]triazacyclotridecine-15,19(14H)-dione, methanesulfonic acid salt] | 8.4
Cl.O=C1c2cc(F)c(F)cc2N2CN1c1ccc(=O)[nH]c1CCNCc1c(OC(F)F)cccc12 [Example 75, 9-(Difluoromethoxy)-2,3-difluoro-10,11,12,13-tetrahydro-19H-5,18-methanodibenzo[c,f]pyrido[3,2-j][1,5,9]triazacyclotridecine-15,19(14H)-dione hydrochloride] | 5.4
O=C1c2cc(F)c(Cl)cc2N2CN1c1ccc(=O)[nH]c1CCNCc1c2ccc(F)c1F [Example 50, 3-Chloro-2,8,9-trifluoro-10,11,12,13-tetrahydro-19H-5,18-methanodibenzo-[c,f]pyrido[3,2-j][1,5,9]triazacyclotridecine-15,19(14H)-dione] | 8
C[C@@H]1NCCCc2[nH]c(=O)ccc2N2CN(c3cc(C(F)(F)F)c(F)cc3C2=O)c2ccc(F)cc21 [Example 137, (4S)-2^6,3^4-Difluoro-4-methyl-2^7-(trifluoromethyl)-1^1,1^2,2^1,2^2,2^3,2^4-hexahydro-5-aza-2(3,1)-quinazolina-1(5,6)-pyridina-3(1,2)-benzenacyclooctaphane-1^2,2^4-dione] | 6.6
Cl.O=C1c2cc(F)c(F)cc2N2CN1c1ccc(=O)[nH]c1CCCNCc1c2ccc(F)c1Cl [Example 109, 3^3-Chloro-2^6,2^7,3^4-trifluoro-1^1,1^2,2^1,2^2,2^3,2^4-hexahydro-5-aza-2(3,1)-quinazolina-1(5,6)-pyridina-3(1,2)-benzenacyclooctaphane-1^2,2^4-dione hydrochloride] | 6.8
O=C1c2cnc(C(F)(F)F)cc2N2CN1c1ccc(=O)[nH]c1NCCCc1cc(F)ccc12 [Example 36, 8-Fluoro-3-(trifluoromethyl)-10,11,12,13-tetrahydro-19H-5,18-methanodibenzo[i]dipyrido[2,3,-b:3′,4′-f][1,4,8]triazacyclotridecine-15,19(14H)-dione] | 6.6
CN1CCCc2[nH]c(=O)ccc2N2CN(c3cc(F)c(F)cc3C2=O)c2ccc(F)c(Cl)c2C1.Cl [Example 113, 3^3-Chloro-2^6,2^7,3^4-trifluoro-5-methyl-1^1,1^2,2^1,2^2,2^3,2^4-hexahydro-5-aza-2(3,1)-quinazolina-1(5,6)-pyridina-3(1,2)-benzenacyclooctaphane-1^2,2^4-dione hydrochloride] | 6.9
O=C1c2cc(F)c(C(F)(F)F)cc2N2CN1c1ccc(=O)[nH]c1NCCCc1cc(F)ccc12 [Example 32, 2,8-Difluoro-3-(trifluoromethyl)-10,11,12,13-tetrahydro-19H-5,18-methanodibenzo[f,i]pyrido[2,3,-b][1,4,8]triazacyclotridecine-15,19(14H)-dione] | 8.4
Cl.O=C1c2cc(F)c(C(F)(F)F)cc2N2CN1c1ccc(=O)[nH]c1CCNCc1c(Cl)cccc12 [Example 81, 9-Chloro-2-fluoro-3-(trifluoromethyl)-10,11,12,13-tetrahydro-19H-5,18-methanodibenzo-[c,f]pyrido[3,2-j][1,5,9]triazacyclotridecine-15,19(14H)-dione hydrochloride] | 8.5
Cl.O=C1c2cc(F)c(C(F)(F)F)cc2N2CN1c1ccc(=O)[nH]c1CNCCCc1c2ccc(F)c1F [Example 106, 2^6,3^3,3^4-Trifluoro-2^7-(trifluoromethyl)-1^1,1^2,2^1,2^2,2^3,2^4-hexahydro-7-aza-2(3,1)-quinazolina-1(5,6)-pyridina-3(1,2)-benzenacyclooctaphane-1^2,2^4-dione hydrochloride] | 8.1
Cl.O=C1c2cc(F)c(Cl)cc2N2CN1c1ccc(=O)[nH]c1CCNCc1cc(F)ccc12 [Example 46, 3-Chloro-2,8-difluoro-10,11,12,13-tetrahydro-19H-5,18-methanodibenzo[c,f]pyrido[3,2-j][1,5,9]triazacyclotridecine-15,19(14H)-dione, hydrochloride] | 8
O=C1c2cc(F)c(C(F)(F)F)cc2N2CN1c1ccc(=O)[nH]c1CNCCc1cc(F)ccc12 [Example 102, 2,8-Difluoro-3-(trifluoromethyl)-10,11,12,13-tetrahydro-19H-5,18-methanodibenzo[b,l]pyrido[3,2-f][1,5,9]triazacyclotridecine-15,19(14H)-dione] | 7.1
Cl.O=C1c2cc(F)c(Br)cc2N2CN1c1ccc(=O)[nH]c1CCNCc1cc(F)ccc12 [Example 63, 3-Bromo-2,8-difluoro-10,11,12,13-tetrahydro-19H-5,18-methanodibenzo[c,f]pyrido[3,2-j][1,5,9]triazacyclotridecine-15,19(14H)-dione hydrochloride] | 8
O=C1c2cc(F)c(C(F)(F)F)cc2N2CN1c1ccc(=O)[nH]c1NCCOCc1cc(F)ccc12 [Example 129, 2^6,3^4-Difluoro-2^7-(trifluoromethyl)-1^1,1^2,2^1,2^2,2^3,2^4-hexahydro-5-oxa-8-aza-2(3,1)-quinazolina-1(5,6)-pyridina-3(1,2)-benzenacyclooctaphane-1^2,2^4-dione] | 6.4
Cl.O=C1c2cc(F)c(C(F)(F)F)cc2N2CN1c1ccc(=O)[nH]c1CCNCCc1cc(F)ccc12 [Example 111, 2^6,3^4-Difluoro-2^7-(trifluoromethyl)-1^1,1^2,2^1,2^2,2^3,2^4-hexahydro-6-aza-2(3,1)-quinazolina-1(5,6)-pyridina-3(1,2)-benzenacyclooctaphane-1^2,2^4-dione hydrochloride] | 7.1
O=C1c2cc(C(F)(F)F)ccc2N2CN1c1ccc(=O)[nH]c1CCCCc1cc(F)ccc12 [Example 4, 8-Fluoro-2-(trifluoromethyl)-10,11,12,13-tetrahydro-19H-5,18-methanodibenzo[b,l]pyridino[3,2-f][1,5]diazacyclotridecine-15,19(14H)-dione] | 6.8
O=C1c2ccc(C(F)(F)F)nc2N2CN1c1ccc(=O)[nH]c1CCCCCc1cc(F)ccc12 [Example 22, 3^4-Fluoro-2^7-(trifluoromethyl)-1^1,1^2,2^1,2^2,2^3,2^4-hexahydro-2(3,1)-pyrido[2,3-d]pyrimidina-1(5,6)-pyridina-3(1,2)-benzenacyclooctaphane-1^2,2^4-dione] | 7.6
N#Cc1c(F)ccc2c1CNCCc1[nH]c(=O)ccc1N1CN2c2cc(F)c(F)cc2C1=O [Example 83, 2,3,8-Trifluoro-15,19-dioxo-10,11,12,13,14,15-hexahydro-19H-5,18-methano-dibenzo[c,f]pyrido[3,2-j][1,5,9]triazacyclotridecine-9-carbonitrile] | 6.8
Cl.O=C1c2cc(Cl)c(F)cc2N2CN1c1ccc(=O)[nH]c1NCCCc1c2ccc(F)c1F [Example 101, 2-Chloro-3,8,9-trifluoro-10,11,12,13-tetrahydro-19H-5,18-methanodibenzo[f,i]pyrido[2,3-b]-[1,4,8]triazacyclotridecine-15,19(14H)-dione, hydrochloride] | 7.8
O=C1c2cc(C(F)(F)F)ccc2N2CN1c1ccc(=O)[nH]c1C/C=C\Cc1cc(F)ccc12 [Example 3, 8-Fluoro-2-(trifluoromethyl)-10,13-dihydro-19H-5,18-methanodibenzo[b,l]pyrido[3,2-f][1,5]diazacyclotridecine-15,19(14H)-dione] | 6.4
CC1NCCc2[nH]c(=O)ccc2N2CN(c3ccc(C(F)(F)F)cc3C2=O)c2ccc(F)cc21 (racemic) [Example 114, 8-Fluoro-10-methyl-2-(trifluoromethyl)-10,11,12,13-tetrahydro-19H-5,18-methanodibenzo[c,f]-pyrido[3,2-j][1,5,9]triazacyclotridecine-15,19(14H)-dione hydrochloride] | 6.8

Same assay, conditions: HEK293 cells expressing human Nav1.8, human Navβ1 and human TREK1, P2 current, read-out: Nav1.8, pIC50 (converted)

SMILES | IC50 [nM]
C[C@H]1CCNc2[nH]c(=O)ccc2N2CN(c3cc(C(F)(F)F)c(F)cc3C2=O)c2ccc(F)c(F)c21 [Example 132, (10S)-2,8,9-trifluoro-10-methyl-3-(trifluoromethyl)-10,11,12,13-tetrahydro-19H-5,18-methanodibenzo[f,i]pyrido[2,3-b][1,4,8]triazacyclotridecine-15,19(14H)-dione] | 6.31
C[C@H]1NCCc2[nH]c(=O)ccc2N2CN(c3ccc(C(F)(F)F)cc3C2=O)c2ccc(F)cc21 [Example 115, (10R)-8-fluoro-10-methyl-2-(trifluoromethyl)-10,11,12,13-tetrahydro-19H-5,18-methanodibenzo[c,f]pyrido[3,2-j][1,5,9]triazacyclotridecine-15,19(14H)-dione] | 100
C[C@@H]1CCNc2[nH]c(=O)ccc2N2CN(c3cc(C(F)(F)F)c(F)cc3C2=O)c2ccc(F)c(F)c21 [Example 133, (10R)-2,8,9-trifluoro-10-methyl-3-(trifluoromethyl)-10,11,12,13-tetrahydro-19H-5,18-methanodibenzo[f,i]pyrido[2,3-b][1,4,8]triazacyclotridecine-15,19(14H)-dione] | 39.8
